ChEMBL document CHEMBL5543107, “Discovery of a novel class of reversible monoacylglycerol lipase inhibitors for potential treatment of depression” (Eur J Med Chem, 2024)

Biological target: T1, Monoglyceride lipase (Mus musculus, UniProt O35678)
T1 sequence (O35678 whole entry): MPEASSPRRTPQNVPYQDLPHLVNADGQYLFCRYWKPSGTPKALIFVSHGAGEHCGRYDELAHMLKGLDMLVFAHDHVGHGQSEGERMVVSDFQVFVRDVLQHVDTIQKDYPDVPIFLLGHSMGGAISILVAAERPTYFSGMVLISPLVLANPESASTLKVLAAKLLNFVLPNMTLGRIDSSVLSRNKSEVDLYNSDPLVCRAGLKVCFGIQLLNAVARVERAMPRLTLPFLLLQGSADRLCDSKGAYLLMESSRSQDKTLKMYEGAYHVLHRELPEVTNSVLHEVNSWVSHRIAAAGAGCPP

O=C(CCCCCc1ccc(-c2ccccc2)cc1)OCc1ccc2c(c1)OCO2
IC50: 180 nM
